{"source": "ChEMBL document CHEMBL1136619", "about": "“Synthesis of a new family of glycolipidic nitrones as potential antioxidant drugs for neurodegenerative disorders” (Bioorg Med Chem Lett, 2003)", "tested_on": "neuronal", "test": "Cytotoxic activity in cultured neuronal cells determined using MTT viability assay", "format": "functional, cell-based"}
{"smiles": "CCCCCCCCCCCCSCC(C)(C)/[N+]([O-])=C/c1ccc(CNC(=O)[C@H](O)[C@@H](O)[C@H](O[C@@H]2O[C@@H](CO)[C@H](O)[C@H](O)[C@@H]2O)[C@H](O)CO)cc1", "values": [{"measurement": "Concentration", "value": 400, "unit": "µM"}]}
